Experimental data published in patent publication US20110039921A1 (priority 2007, published 2011).
Where two headings read alike, the source gives them in different places.

Legend:
BGC-803 = assay: MTT cytotoxicity assay, BGC-803 cells; assay type: cell-based; settings: Table 2, read-out: IC50 (mol/L) BGC-803
Description: (§1) Experiment 1. Cytotoxicity Screening Assay at Cell Level of Compounds of this Invention
(§2) Tumor cells at log phase were incubated on 96-well plates at a density of 1˜1.2×10^4 cells/ml, 100 μl/well. 24 h later, treatment cells were exposed to the tested agents at different concentrations. Each tested agents had 4˜5 doses, and each dose had at least 3 parallel wells. Control cells were exposed to solvents in the same volume with treat agents. Cells were cultured at 37° C. in a cell incubator with 5% CO2 and 95% air atmosphere. After 4 days of culture, the incubation medium was removed, then 200 μl 0.2% MTT (prepared by RPMI 1640) was added to each well and the plates were incubated at 37° C. for 4 hours. The supernatant was discarded and dissolved the resulting formazen product with 200 μl DMSO in each well. The absorbance at a reference wavelength of 450 nm and a test wavelength of 570 nm was read on a microplate reader after tenderly shaking. Calculated drug inhibitory rate using the following equation and IC50, taking solvent exposure tumor cells as control cells.

[1] = tested on: A549: the human lung adenocarcinoma cell strain; assay: cells; assay type: cell-based
Description: as §1, §2

[2] = tested on: KB: the human oral epithelium cancer cell strain; assay: cells; assay type: cell-based
Description: as §1, §2

[3] = tested on: human lung adenocarcinoma A549-nude mice-xenograft tumor; assay: Growth inhibition on A549-nude mice-xenograft tumor
From the text: (§3) Genera: BALB/c (nu-nu) nude mice
(§4) After one-week accommodation, animals were given subcutaneous implantation of the human lung adenocarcinoma A549 or the human ovarian cancer A2780 or the human gastric carcinoma BGC-823 cells. Animals were grouped randomly (d0) when the tumors reached 100-300 mm^3. […] Animal weights and tumor measurements were taken every […] and recorded. At the end of the study (d30 or d35), nude mice were euthanized and weighed. After the animals were sacrificed, tumor tissue was cut and weighed. Tumor volume was determined using the following equation: […]

[4] = tested on: MCF-7/D: adriamycin-resistant subline of the human mammary adenocarcinoma cell strain MCF-7; assay: MTT cytotoxicity assay, MCF-7/D cells; assay type: cell-based; settings: Table 2, read-out: IC50 (mol/L) MCF-7/D
Description: as §1, §2

[5] = tested on: human ovarian cancer A2780-nude mice-xenograft tumor; assay: Growth inhibition on A2780-nude mice-xenograft tumor; settings: for Tv x ± SD dn: dn: 30 days after the first administration
From the text: as §3, §4

Lewis lung cancer = assay: Inhibitory activity on mice Lewis lung cancer
BGC-823 = assay: MTT cytotoxicity assay, BGC-823 cells; assay type: cell-based, human; settings: Table 2, read-out: IC50 (mol/L) BGC-823
Description: as §1, §2

A2780 = assay: MTT cytotoxicity assay, A2780 cells; assay type: cell-based, human; settings: Table 2, read-out: IC50 (mol/L) A2780
Description: as §1, §2

[6] = tested on: human mammary adenocarcinoma cell strain MCF-7; assay: MTT cytotoxicity assay, MCF-7 cells; assay type: cell-based; settings: Table 2, read-out: IC50 (mol/L) MCF-7
Description: as §1, §2

HCT-8 = assay: MTT cytotoxicity assay, HCT-8 cells; assay type: cell-based; settings: Table 2, read-out: IC50 (mol/L) HCT-8
Description: as §1, §2

[7] = tested on: A549/Taxol: the taxol-resistant substrain of A549; assay: cells; assay type: cell-based, human
Description: as §1, §2

[8] = tested on: KB/V: the vincristine-resistant substrain of KB; assay: cells; assay type: cell-based, human; settings: Table 1; MTT, 4 days of culture; read-out: IC50(M) KB/V
Description: as §1, §2

Bel-7402 = assay: MTT cytotoxicity assay, Bel-7402 cells; assay type: cell-based; settings: Table 2, read-out: IC50 (mol/L) Bel-7402
Description: as §1, §2

[9] = tested on: human gastric carcinoma BGC-823 nude mice-xenograft tumor; assay: Growth inhibition on BGC-823-nude mice-xenograft tumor; settings: for Tv x ± SD dn: dn 30 days after the first administration
From the text: as §3, §4

CC=C(C)C(=O)NC(c1ccccc1)C(O)C(=O)OC1CC2(O)C(OC(=O)c3cccc(N=[N+]=[N-])c3)C3C4(OC(C)=O)COC4CC(OC(=O)CC)C3(C)C(=O)C(O)C(=C1C)C2(C)C (stereo not drawn) [Example 8, 2-(3-azidobenzoyl)-7-propionyl-10-deacetyl-cephalomannine]
IC50 (BGC-803): 2.4 nM | IC50 ([1]; Table 1, MTT, 4 days of culture, read-out: IC50(M) A549): 9.36e-09 M | IC50 ([1]; Table 2, MTT assay, read-out: IC50 (mol/L) A549): 9.4e-10 M | IC50 ([2]; Table 1, MTT, 4 days of culture, read-out: IC50(M) KB): 2.39e-09 M | IC50 ([2]; Table 2, MTT assay, read-out: IC50 (mol/L) KB): 4.9e-10 M | RTV ([3]; 7.5 × 3 mg/kg): 7.2 | T/C (%) ([3]; 7.5 × 3 mg/kg): 60.7% | Body weight (g) end ([3]; 7.5 × 3 mg/kg): 21.8 g | Tv x ± SD end ([3]; 7.5 × 3 mg/kg): 3090 ± 900 | Body weight (g) initial ([3]; 7.5 × 3 mg/kg): 21.6 g | Tv x ± SD initial ([3]; 7.5 × 3 mg/kg): 431 ± 94 | RTV ([3]; 15 × 3 mg/kg): 6.7 | T/C (%) ([3]; 15 × 3 mg/kg): 56.7% | Body weight (g) end ([3]; 15 × 3 mg/kg): 25.1 g | Tv x ± SD end ([3]; 15 × 3 mg/kg): 2897 ± 950 | Body weight (g) initial ([3]; 15 × 3 mg/kg): 22.4 g | Tv x ± SD initial ([3]; 15 × 3 mg/kg): 432 ± 115 | RTV ([3]; 30 × 3 mg/kg): 4.0 | T/C (%) ([3]; 30 × 3 mg/kg): 33.56% | Body weight (g) end ([3]; 30 × 3 mg/kg): 23.2 g | Tv x ± SD end ([3]; 30 × 3 mg/kg): 1646 ± 450 | Body weight (g) initial ([3]; 30 × 3 mg/kg): 21.8 g | Tv x ± SD initial ([3]; 30 × 3 mg/kg): 415 ± 85 | inhibition of tumor growth, conclusion in words ([3]; A549 nude mice-xenograft tumor, comparison with taxol): stronger effect | IC50 [4]: 270 nM | RTV ([5]; 7.5 × 4 mg/kg i.p.): 7.8 | T/C (%) ([5]; 7.5 × 4 mg/kg i.p.): 80.3% | Tv x ± SD d0 ([5]; 7.5 × 4 mg/kg i.p., d0): 127.6 ± 65.9 | Tv x ± SD dn ([5]; 7.5 × 4 mg/kg i.p.): 989.3 ± 658.9 | Body weight (g) end ([5]; 7.5 × 4 mg/kg i.p.): 25.5 g | Body weight (g) initial ([5]; 7.5 × 4 mg/kg i.p.): 22.4 g | RTV ([5]; 15 × 4 mg/kg i.p.): 6.6 | T/C (%) ([5]; 15 × 4 mg/kg i.p.): 68.1% | Tv x ± SD d0 ([5]; 15 × 4 mg/kg i.p., d0): 130.2 ± 36.0 | Tv x ± SD dn ([5]; 15 × 4 mg/kg i.p.): 855.6 ± 500.3 | Body weight (g) end ([5]; 15 × 4 mg/kg i.p.): 25.2 g | Body weight (g) initial ([5]; 15 × 4 mg/kg i.p.): 22.0 g | RTV ([5]; 30 × 4 mg/kg i.p.): 3.4 | T/C (%) ([5]; 30 × 4 mg/kg i.p.): 34.9% | Tv x ± SD d0 ([5]; 30 × 4 mg/kg i.p., d0 (first administration)): 157.1 ± 56.2 | Tv x ± SD dn ([5]; 30 × 4 mg/kg i.p.): 529.6 ± 454.8 | Body weight (g) end ([5]; 30 × 4 mg/kg i.p.): 22.3 g | Body weight (g) initial ([5]; 30 × 4 mg/kg i.p.): 22.0 g | inhibition of tumor growth, conclusion in words ([5]; A2780 nude mice-xenograft tumor, comparison with taxol): stronger effect | Inhibition (%) (Lewis lung cancer; 2.5 × 8 mg/kg): 27.77% | Tumor weight (g) Average (Lewis lung cancer; 2.5 × 8 mg/kg): 2.07 g | Body weight (g) end (Lewis lung cancer; 2.5 × 8 mg/kg): 22.0 g | Body weight (g) initial (Lewis lung cancer; 2.5 × 8 mg/kg): 20.0 g | Inhibition (%) (Lewis lung cancer; 5 × 8 mg/kg): 32.46% | Tumor weight (g) Average (Lewis lung cancer; 5 × 8 mg/kg): 1.96 g | Body weight (g) end (Lewis lung cancer; 5 × 8 mg/kg): 20.4 g | Body weight (g) initial (Lewis lung cancer; 5 × 8 mg/kg): 20.0 g | Inhibition (%) (Lewis lung cancer; 10 × 8 mg/kg): 76.08% | Tumor weight (g) Average (Lewis lung cancer; 10 × 8 mg/kg): 0.69 g | Body weight (g) end (Lewis lung cancer; 10 × 8 mg/kg): 16.8 g | Body weight (g) initial (Lewis lung cancer; 10 × 8 mg/kg): 19.5 g | inhibition of tumor growth, conclusion in words (Lewis lung cancer; Lewis lung cancer, comparison with taxol): stronger effect | IC50 (BGC-823): 1.3 nM | IC50 (A2780): 3.6 nM | IC50 [6]: 0.68 nM | IC50 (HCT-8): 0.32 nM | IC50 ([7]; Table 2, MTT assay, read-out: IC50 (mol/L) A549/T): 1.4 nM | IC50 ([7]; read-out: IC50(M) A549/Taxol, Table 1, MTT, 4 days of culture): > 1000 nM | IC50 [8]: 2.73e-07 M | IC50 (Bel-7402): 8.7 nM | RTV ([9]; 7.5 × 4 mg/kg i.p.): 17.45 | T/C (%) ([9]; 7.5 × 4 mg/kg i.p.): 63.84% | Tv x ± SD d0 ([9]; 7.5 × 4 mg/kg i.p.): 101.1 ± 17.4 | Tv x ± SD dn ([9]; 7.5 × 4 mg/kg i.p.): 2057.5 ± 1756.4 | Body weight (g) end ([9]; 7.5 × 4 mg/kg i.p.): 26.1 g | Body weight (g) initial ([9]; 7.5 × 4 mg/kg i.p.): 24.7 g | RTV ([9]; 15 × 4 mg/kg i.p.): 9.27 | T/C (%) ([9]; 15 × 4 mg/kg i.p.): 33.90% | Tv x ± SD d0 ([9]; 15 × 4 mg/kg i.p.): 104.4 ± 16 | Tv x ± SD dn ([9]; 15 × 4 mg/kg i.p.): 1156.6 ± 403.9 | Body weight (g) end ([9]; 15 × 4 mg/kg i.p.): 23.8 g | Body weight (g) initial ([9]; 15 × 4 mg/kg i.p.): 25.2 g | RTV ([9]; 30 × 4 mg/kg i.p.): 0.47 | T/C (%) ([9]; 30 × 4 mg/kg i.p.): 4.57% | Tv x ± SD d0 ([9]; 30 × 4 mg/kg i.p.): 99.7 ± 34.3 | Tv x ± SD dn ([9]; 30 × 4 mg/kg i.p.): 177.1 ± 199.0 | Body weight (g) end ([9]; 30 × 4 mg/kg i.p.): 23.9 g | Body weight (g) initial ([9]; 30 × 4 mg/kg i.p.): 25.0 g | inhibition of tumor growth, conclusion in words ([9]; BGC-823 nude mice-xenograft tumor, comparison with taxol): equal to taxol
